molecular target: T1, human GST-HPK1 (1-346) (Homo sapiens, UniProt Q92918); assay: HPK1 enzyme inhibitory ability (ADP-Glo kinase assay); assay type: biochemical; details: human GST-HPK1 3 ng, ATP 3 uM, 25° C. 2 hours
T1 construct: purified human GST-HPK1 (1-346, Signalchem) enzyme; purchased Signalchem
T1 sequence (Q92918 1-346): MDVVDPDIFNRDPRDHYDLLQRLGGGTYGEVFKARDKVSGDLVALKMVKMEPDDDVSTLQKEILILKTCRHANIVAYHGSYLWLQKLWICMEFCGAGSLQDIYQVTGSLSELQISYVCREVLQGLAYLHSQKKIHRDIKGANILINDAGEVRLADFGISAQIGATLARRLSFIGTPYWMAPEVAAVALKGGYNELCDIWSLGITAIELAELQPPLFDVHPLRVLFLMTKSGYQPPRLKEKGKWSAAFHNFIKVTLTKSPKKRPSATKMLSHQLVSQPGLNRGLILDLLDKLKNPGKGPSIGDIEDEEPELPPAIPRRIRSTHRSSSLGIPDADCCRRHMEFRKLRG
Experimental: In order to evaluate the inhibitory activities of the example compounds according to the present invention on the HPK1 (hematopoietic progenitor kinase 1) enzyme, the following experiment was performed. The example compounds were reacted with the purified human GST-HPK1 (1-346, Signalchem) enzyme to evaluate the enzyme inhibitory ability by the following method. As the reaction buffer, a composition of 40 mM Tris-HCl pH 7.4, 20 mM MgCl2, 0.5 mg/mL BSA and 50 uM DTT was used, and reactions of all test matters were performed on the reaction buffer. Upon the test, the human GST-HPK1 (3 ng) enzyme, the purified ATP (3 uM) and a specific substrate solution were reacted at 25° C. for 2 hours, and then the enzyme activity was identified using an in vitro ADP-Glo™ kinase assay (promega). The enzyme activity reaction solution, the ADP-Glo reaction solution and the enzyme ability detection solution were reacted in a ratio of 2:2:1 to measure luminescence. The enzyme activity inhibition degree according to the treatment concentrations of the respective compounds was calculated based on the fluorescence of the enzyme activity of the solvent control group that was not treated with the compound, where the concentration of each compound that inhibited enzyme activity inhibition by 50% was determined as an IC50 (nM) value.

SMILES | IC50 [nM]
Cc1cc(Nc2nc(N3OCC[C@H]3c3ccccc3)c3cc[nH]c3n2)cc(C)c1OCCCN1CCN(C)CC1 [Example 102, (S)-N-(3,5-dimethyl-4-(3-(4-methylpiperazin-1-yl)propoxy)phenyl)-4-(3-phenylisoxazolidin-2-yl)-7H-pyrrolo[2,3-d]pyrimidin-2-amine] | ≥ 250
COc1cc(C(=O)N2CCC(N3CCOCC3)CC2)ccc1Nc1nc(N2OCC[C@H]2c2ccccc2)c2cc[nH]c2n1 [Example 97, (S)-(3-methoxy-4-((4-(3-phenylisoxazolidin-2-yl)-7H-pyrrolo[2,3-d]pyrimidin-2-yl)amino)phenyl)(4-morpholinopiperidin-1-yl)methanone] | > 500
COc1cc(N2CCC(N3CCN(C)CC3)CC2)ccc1Nc1nc(N2OCC[C@H]2c2ccccc2)c2cc[nH]c2n1 [Example 88, (S)-N-(2-methoxy-4-(4-(4-methylpiperazin-1-yl)piperidin-1-yl)phenyl)-4-(3-phenylisoxazolidin-2-yl)-7H-pyrrolo[2,3-d]pyrimidin-2-amine] | > 500
COc1cc(Nc2nc(N3OCC[C@H]3c3ccccc3)c3cc[nH]c3n2)cc(C(=O)N2CCN(CCO)CC2)c1 [Example 94, (S)-(4-(2-hydroxyethyl)piperazin-1-yl)(3-methoxy-5-((4-(3-phenylisoxazolidin-2-yl)-7H-pyrrolo[2,3-d]pyrimidin-2-yl)amino)phenyl)methanone] | > 500
c1ccc([C@@H]2CCON2c2nc(Nc3ccc(N4CCC(N5CCN(C6CC6)CC5)CC4)cc3)nc3[nH]ccc23)cc1 [Example 86, (S)-N-(4-(4-(4-cyclopropylpiperazin-1-yl)piperidin-1-yl)phenyl)-4-(3-phenylisoxazolidin-2-yl)-7H-pyrrolo[2,3-d]pyrimidin-2-amine] | > 500
COc1cc(C(=O)N2CCC(N3CCN(C)CC3)CC2)ccc1Nc1nc(N2OCC[C@H]2c2ccccc2)c2cc[nH]c2n1 [Example 98, (S)-(3-methoxy-4-((4-(3-phenylisoxazolidin-2-yl)-7H-pyrrolo[2,3-d]pyrimidin-2-yl)amino)phenyl)(4-(4-methylpiperazin-1-yl)piperidin-1-yl)methanone] | > 500
CN(C)C(=O)Cn1cc(Nc2nc(N3OCC[C@H]3c3ccccc3)c3cc[nH]c3n2)cn1 [Example 103, S-N,N-dimethyl-2-(4-((4-(3-phenylisoxazolidin-2-yl)-7H-pyrrolo[2,3-d]pyrimidin-2-yl)amino)-1H-pyrazol-1-yl)acetamide] | > 500
COc1cc2c(cc1Nc1nc(N3OCC[C@H]3c3ccccc3)c3cc[nH]c3n1)CN(C)CC2 [Example 106, (S)-6-methoxy-2-methyl-N-(4-(3-phenylisoxazolidin-2-yl)-7H-pyrrolo[2,3-d]pyrimidin-2-yl)-1,2,3,4-tetrahydroisoquinolin-7-amine] | > 500
COc1cc(N2CCN(C)CC2)ccc1Nc1nc(N2OCC[C@H]2c2ccccc2)c2cc[nH]c2n1 [Example 80, (S)-N-(2-methoxy-4-(4-methylpiperazin-1-yl)phenyl)-4-(3-phenylisoxazolidin-2-yl)-7H-pyrrolo[2,3-d]pyrimidin-2-amine] | > 500

Next, values leading:

IC50 [nM] | SMILES
> 500 | COc1ccc2c(c1Nc1nc(N3OCC[C@H]3c3ccccc3)c3cc[nH]c3n1)CCNC2 [Example 113, (S)-6-methoxy-N-(4-(3-phenylisoxazolidin-2-yl)-7H-pyrrolo[2,3-d]pyrimidin-2-yl)-1,2,3,4-tetrahydroisoquinolin-5-amine]
> 500 | FC(F)(F)c1c[nH]c2nc(Nc3ccc4c(c3)CCNC4)nc(N3OCC[C@H]3c3ccccc3)c12 [Example 124, (S)-N-(4-(3-phenylisoxazolidin-2-yl)-5-(trifluoromethyl)-7H-pyrrolo[2,3-d]pyrimidin-2-yl)-1,2,3,4-tetrahydroisoquinolin-6-amine]
> 500 | COc1cc2c(cc1Nc1nc(N3OCC[C@H]3c3ccccc3)c3cc[nH]c3n1)CNCC2 [Example 107, (S)-6-methoxy-N-(4-(3-phenylisoxazolidin-2-yl)-7H-pyrrolo[2,3-d]pyrimidin-2-yl)-1,2,3,4-tetrahydroisoquinolin-7-amine]
> 500 | CC(=O)N1CCc2cc(Nc3nc(N4OCC[C@H]4c4ccccc4)c4cc[nH]c4n3)ccc2C1 [Example 112, (S)-1-(6-((4-(3-phenylisoxazolidin-2-yl)-7H-pyrrolo[2,3-d]pyrimidin-2-yl)amino)-3,4-dihydroisoquinolin-2(1H)-yl)ethan-1-one]
> 500 | COc1cc2c(cc1Nc1nc(N3OCC[C@H]3c3ccccc3)c3c(C#N)c[nH]c3n1)CN(C1CC1)CC2 [Example 122, (S)-2-((2-cyclopropyl-6-methoxy-1,2,3,4-tetrahydroisoquinolin-7-yl)amino)-4-(3-phenylisoxazolidin-2-yl)-7H-pyrrolo[2,3-d]pyrimidine-5-carbonitrile]
> 500 | COc1ccc2c(c1Nc1nc(N3OCC[C@H]3c3ccccc3)c3cc[nH]c3n1)CCN(C)C2 [Example 114, (S)-6-methoxy-2-methyl-N-(4-(3-phenylisoxazolidin-2-yl)-7H-pyrrolo[2,3-d]pyrimidin-2-yl)-1,2,3,4-tetrahydroisoquinolin-5-amine]
≥ 250 | COc1cc2c(cc1Nc1nc(N3OCC[C@H]3c3ccccc3)c3cc[nH]c3n1)C(=O)NCC2 [Example 108, (S)-6-methoxy-7-((4-(3-phenylisoxazolidin-2-yl)-7H-pyrrolo[2,3-d]pyrimidin-2-yl)amino)-3,4-dihydroisoquinolin-1(2H)-one]

molecular target: T2, human FLT3-ITD enzyme (Homo sapiens, UniProt P36888); assay: FLT3 enzyme inhibitory ability (ADP-Glo kinase assay); assay type: biochemical; details: human FLT3-ITD enzyme 10 ng, ATP 10 μM, 25° C. 1 hour
T2 sequence (P36888 1-993): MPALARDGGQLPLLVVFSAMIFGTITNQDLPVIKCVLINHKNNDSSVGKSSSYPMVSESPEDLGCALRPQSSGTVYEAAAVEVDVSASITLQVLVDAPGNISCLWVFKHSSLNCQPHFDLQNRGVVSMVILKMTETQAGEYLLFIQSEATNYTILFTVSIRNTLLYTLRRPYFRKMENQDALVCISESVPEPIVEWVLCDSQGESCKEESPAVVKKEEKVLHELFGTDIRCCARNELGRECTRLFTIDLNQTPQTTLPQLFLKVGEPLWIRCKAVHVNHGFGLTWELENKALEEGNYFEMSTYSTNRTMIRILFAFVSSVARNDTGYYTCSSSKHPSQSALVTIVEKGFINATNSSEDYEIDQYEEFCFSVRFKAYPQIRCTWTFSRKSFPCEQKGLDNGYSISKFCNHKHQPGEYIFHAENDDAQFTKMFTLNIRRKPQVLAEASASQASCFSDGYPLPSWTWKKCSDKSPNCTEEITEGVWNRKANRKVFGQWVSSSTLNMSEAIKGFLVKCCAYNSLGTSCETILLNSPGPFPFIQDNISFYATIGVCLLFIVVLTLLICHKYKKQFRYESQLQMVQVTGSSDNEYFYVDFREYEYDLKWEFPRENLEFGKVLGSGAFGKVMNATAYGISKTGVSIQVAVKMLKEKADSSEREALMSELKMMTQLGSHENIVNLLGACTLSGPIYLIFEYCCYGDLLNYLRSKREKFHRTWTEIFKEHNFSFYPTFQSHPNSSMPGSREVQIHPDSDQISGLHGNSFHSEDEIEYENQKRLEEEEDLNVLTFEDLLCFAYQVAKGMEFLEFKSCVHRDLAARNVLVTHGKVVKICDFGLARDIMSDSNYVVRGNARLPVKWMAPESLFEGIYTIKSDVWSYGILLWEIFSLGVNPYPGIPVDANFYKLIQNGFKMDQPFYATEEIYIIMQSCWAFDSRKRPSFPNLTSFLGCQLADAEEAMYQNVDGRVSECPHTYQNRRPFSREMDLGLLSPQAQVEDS
Experimental: The inhibitory activities of the example compounds according to the present invention to the FLT3-ITD enzyme were evaluated. Specifically, the compound of the present invention was reacted with a purified human FLT3-ITD enzyme (Signalchem). A composition of 40 mM Tris-HCl pH 7.4, 20 mM MgCl2, 0.5 mg/mL BSA and 50 μM DTT was used as a reaction buffer, and reactions of all test matters were performed on the reaction buffer. Upon the test, human FLT3-ITD enzyme (10 ng), purified ATP (10 μM) and a specific substrate solution were reacted at 25° C. for 1 hour, and then the enzyme activity was identified using an in vitro ADP-Glo™ kinase assay (Promega). The enzyme activity reaction solution, the ADP-Glo reaction solution and the enzyme ability detection solution were reacted in a ratio of 2:2:1, and the activity inhibition degree of the enzyme was measured as luminescence. Using the solvent-treated group that was not treated with the compound as a control group, the enzyme activity inhibition degree according to the treatment concentration of each compound was calculated based on the enzyme activity fluorescence degree, and the concentration of each compound that inhibited 50%, IC50 (nM), was determined using Prism Software (version 5.01, GraphPad).

IC50 [nM] | SMILES
> 500 | COc1cc(Nc2nc(N3OCC[C@H]3c3ccccc3)c3cc[nH]c3n2)cc(C(=O)N2CCN(CCO)CC2)c1 [Example 94, (S)-(4-(2-hydroxyethyl)piperazin-1-yl)(3-methoxy-5-((4-(3-phenylisoxazolidin-2-yl)-7H-pyrrolo[2,3-d]pyrimidin-2-yl)amino)phenyl)methanone]
